Earlier results as cited in patent US20080147019A1, “Antimicrobial component system containing metallic nanoparticles and chitosan and/or its derivatives” (Kimberly-Clark Worldwide, Inc., priority 2006, published 2008).

Test system: bacteria (gram+ and gram−), as well as fungi (molds and yeasts)
Conditions: very low doses, as low as about

[Ag+] [Ionic silver, Ionic silver (Ag+)]
dose at which antimicrobial (oligodynamic): 0.001-0.05 ppm
